Assay results: the supplement of paper PMC7840683
Counter-ions that a name gives are not always drawn.

Test system: HepaRG
Experiment: LDH release cytotoxicity, % of total lysis control; higher = more cytotoxic
Settings: 48 h
In short: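 HepaRG cells from a single lot were plated on collagen I-coated 96-well plates and treated in duplicate for 48 h with eight-point half-log series of test chemicals, starting at 100 µM, in serum-free induction medium containing 0.5% DMSO. Total lysis wells were given 0.1% Triton X. LDH released into 50 µL of spent medium was measured as resorufin fluorescence with CytoTox-ONE on a Tecan Safire. Percent cytotoxicity was normalized to on-plate vehicle and total lysis controls and then averaged across duplicates.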

CN(C)C(=S)S [Sodium dimethyldithiocarbamate]
Settings | LDH release cytotoxicity [%]
0.03162 µM | -0.405
0.1 µM | -0.29
0.3162278 µM | -0.988
1 µM | -0.72
3.16228 µM | -0.138
10 µM | 0.154
31.6228 µM | 0.196
100 µM | 2.63

Nc1ccc(Oc2ccc(N)cc2)cc1 [4,4'-Oxydianiline]
Settings | LDH release cytotoxicity [%]
0.031623 µM | -1.51
0.1 µM | -3.05
0.316228 µM | -1.18
1 µM | -2.52
3.16228 µM | -1.772
10 µM | -0.999
31.6228 µM | 17
100 µM | 62.8

C#CC1(O)CCC2C3CCc4cc(O)ccc4C3CCC21C (stereo not drawn) [17alpha-Ethinylestradiol]
Settings | LDH release cytotoxicity [%]
0.03162 µM | -0.935
0.1 µM | -0.618
0.3162278 µM | -0.346
1 µM | -0.588
3.16228 µM | -0.768
10 µM | -0.554
31.6228 µM | 0.171
100 µM | 1.412

COC(=O)C1C2CC3c4[nH]c5cc(OC)ccc5c4CCN3CC2CC(OC(=O)c2cc(OC)c(OC)c(OC)c2)C1OC (stereo not given) [Reserpine]
Settings | LDH release cytotoxicity [%]
0.0267212 µM | -2.17
0.0845 µM | -2.63
0.267213 µM | -1.99
0.845 µM | -3.03
2.67212 µM | -1.69
8.45 µM | -1.52
26.7212 µM | 10.5
84.5 µM | 46.8

COCC(=O)N(c1c(C)cccc1C)C(C)C(=O)OC (stereo not given) [Metalaxyl]
Settings | LDH release cytotoxicity [%]
0.03162 µM | -1.86
0.1 µM | -0.811
0.3162278 µM | -0.303
1 µM | -0.996
3.16228 µM | -0.0482
10 µM | -0.0413
31.6228 µM | 0.228
100 µM | 2.83

C=CCOC(=O)C(C)(C)OC(=O)c1cc(-n2c(=O)cc(C(F)(F)F)n(C)c2=O)ccc1Cl [Butafenacil]
Settings | LDH release cytotoxicity [%]
0.0317809 µM | -1.79
0.1005 µM | -0.9
0.317809 µM | -0.684
1.005 µM | -2.04
3.17809 µM | -1.27
10.05 µM | -0.764
31.7809 µM | -0.16
100.5 µM | 1.19

Cc1nc(-c2ccc3c(c2)CCN(CCC2CCC(NC(=O)C=Cc4ccc(F)cc4)CC2)CC3)no1 (stereo not given)
Settings | LDH release cytotoxicity [%]
0.03162 µM | 0.287
0.1 µM | -0.381
0.3162278 µM | -0.128
1 µM | -0.7917
3.16228 µM | -0.696
10 µM | -0.292
31.6228 µM | -0.793
100 µM | -0.791

COC(=O)c1c(C(F)F)nc(C(F)(F)F)c(C2=NCCS2)c1CC(C)C [Thiazopyr]
Settings | LDH release cytotoxicity [%]
0.03162 µM | -0.958
0.1 µM | -0.18
0.3162278 µM | -0.693
1 µM | -0.8
3.16228 µM | -0.567
10 µM | -0.719
31.6228 µM | -0.722
100 µM | -0.433

Cc1cccc2ccccc12 [1-Methylnaphthalene]
Settings | LDH release cytotoxicity [%]
0.031623 µM | -2.15
0.1 µM | -2.7
0.316228 µM | -2.77
1 µM | -3.13
3.16228 µM | -2.9
10 µM | -2.97
31.6228 µM | -1.66
100 µM | 13.3

CCCCC(CC)C(=O)OCCOCCOCCOC(=O)C(CC)CCCC (stereo not given) [Triethylene glycol bis(2-ethylhexanoate)]
Settings | LDH release cytotoxicity [%]
0.03162 µM | -2.57
0.1 µM | -3.93
0.3162278 µM | -3.45
1 µM | -3.69
3.16228 µM | -3.81
10 µM | -4.01
31.6228 µM | -5.53
100 µM | -1.89

CC(O)CC(C)(C)O (stereo not given) [2-Methyl-2,4-pentanediol]
Settings | LDH release cytotoxicity [%]
0.03162 µM | -1.84
0.1 µM | -2.18
0.3162278 µM | -2.81
1 µM | -2.8
3.16228 µM | -2.62
10 µM | -2.46
31.6228 µM | -2.69
100 µM | -0.649

Cc1ccc(C)c(O)c1C [2,3,6-Trimethylphenol]
Settings | LDH release cytotoxicity [%]
0.03162 µM | -2.75
0.1 µM | -1.45
0.3162278 µM | -1.53
1 µM | -1.64
3.16228 µM | -1.22
10 µM | -0.829
31.6228 µM | -0.517
100 µM | 0.375

CCNc1nc(Cl)nc(NC(C)(C)C)n1 [Terbutylazine]
Settings | LDH release cytotoxicity [%]
0.03162 µM | 0.3
0.1 µM | -1.75
0.3162278 µM | -0.304
1 µM | -1.25
3.16228 µM | -0.494
10 µM | -0.989
31.6228 µM | -0.271
100 µM | -0.0173

COP(=O)(OC)OC(C)=CC(=O)N(C)C [Dicrotophos]
Settings | LDH release cytotoxicity [%]
0.03162 µM | -2.01
0.1 µM | -1.23
0.3162278 µM | -1.47
1 µM | -2.46
3.16228 µM | -1.22
10 µM | -0.345
31.6228 µM | 1.7
100 µM | -0.538

CCOc1ccc2c(n1)C(=O)C(C(=O)NCc1ccccc1)C=N2 (stereo not given)
Settings | LDH release cytotoxicity [%]
0.03162 µM | -1.14
0.1 µM | -1.5
0.3162278 µM | -0.931
1 µM | -1.34
3.16228 µM | -0.884
10 µM | -0.792
31.6228 µM | -1.83
100 µM | -0.163

CC(=O)OCC=C(C)CCC=C(C)C [Geranyl acetate]
Settings | LDH release cytotoxicity [%]
0.031623 µM | -1.3
0.1 µM | -3.48
0.316228 µM | -4.47
1 µM | -4.04
3.16228 µM | -4.04
10 µM | -3.42
31.6228 µM | -1.98
100 µM | -0.423

CC(COc1ccc(Oc2ccccc2)cc1)Oc1ccccn1 (stereo not given) [Pyriproxyfen]
Settings | LDH release cytotoxicity [%]
0.031623 µM | -1.46
0.1 µM | -2.74
0.316228 µM | -2.85
1 µM | -3
3.16228 µM | -3.01
10 µM | -2.89
31.6228 µM | -1.8
100 µM | 1.18

O=C(O)C(F)(F)C(F)(F)C(F)(F)C(F)(F)C(F)(F)C(F)(F)C(F)(F)F [Perfluorooctanoic acid]
Settings | LDH release cytotoxicity [%]
0.03162 µM | -0.867
0.1 µM | -1.32
0.3162278 µM | -1.53
1 µM | -1.76
3.16228 µM | -0.724
10 µM | -1.14
31.6228 µM | -1.29
100 µM | 1.94

CN1CCCC1c1cccnc1 (stereo not given) [Nicotine]
Settings | LDH release cytotoxicity [%]
0.031623 µM | 0.0561
0.1 µM | -2.6
0.316228 µM | -2.47
1 µM | -2.55
3.16228 µM | -2.4
10 µM | -2.95
31.6228 µM | -1.31
100 µM | 0.154

ClC1=C(Cl)C2(Cl)C3C4OC4C(Cl)C3C1(Cl)C2(Cl)Cl (stereo not given) [Heptachlor epoxide B]
Settings | LDH release cytotoxicity [%]
0.03162 µM | -4.87
0.1 µM | -4.16
0.3162278 µM | -4.44
1 µM | -3.99
3.16228 µM | -3.88
10 µM | -3.4
31.6228 µM | -3.14
100 µM | -0.787

CC(C)c1cccc(C(C)C)c1NC(=O)NS(=O)(=O)c1cc(C(C)(C)O)co1
Settings | LDH release cytotoxicity [%]
0.03162 µM | 0.635
0.1 µM | 0.0343
0.3162278 µM | -0.878
1 µM | -1.57
3.16228 µM | -1.32
10 µM | -1.29
31.6228 µM | -1.24
100 µM | -0.335

C=C(C)CN(CC)c1c([N+](=O)[O-])cc(C(F)(F)F)cc1[N+](=O)[O-]
Settings | LDH release cytotoxicity [%]
0.03162 µM | 0.288
0.1 µM | -0.786
0.3162278 µM | -0.775
1 µM | -1.3
3.16228 µM | -0.72
10 µM | -0.92
31.6228 µM | -0.439
100 µM | 0.333

CCCCCCCCOC(=O)c1ccccc1C(=O)OCCCCCCCC [Di-n-octyl phthalate]
Settings | LDH release cytotoxicity [%]
0.03162 µM | -0.293
0.1 µM | -1.33
0.3162278 µM | -0.746
1 µM | -0.29
3.16228 µM | -1.1
10 µM | -0.705
31.6228 µM | -0.176
100 µM | 5.1

CNC(=O)Oc1cccc(N=CN(C)C)c1 [Formetanate hydrochloride]
Settings | LDH release cytotoxicity [%]
0.0317809 µM | -8.9
0.1005 µM | -7.63
0.317809 µM | -7.59
1.005 µM | -7.51
3.17809 µM | -6.9
10.05 µM | -5.88
31.7809 µM | -6.15
100.5 µM | -5.62

COC(=O)N(OC)c1ccccc1COc1ccn(-c2ccc(Cl)cc2)n1 [Pyraclostrobin]
Settings | LDH release cytotoxicity [%]
0.03162 µM | -1.44
0.1 µM | -1.43
0.3162278 µM | -1.17
1 µM | -2.24
3.16228 µM | -1.81
10 µM | -0.283
31.6228 µM | 6.12
100 µM | 56.9

O=C(O)C(F)(F)C(F)(F)C(F)(F)C(F)(F)C(F)(F)C(F)(F)C(F)(F)C(F)(F)F [Perfluorononanoic acid]
Settings | LDH release cytotoxicity [%]
0.03162 µM | -0.689
0.1 µM | -1.58
0.3162278 µM | -1.12
1 µM | -2.4
3.16228 µM | -1.4
10 µM | -1.71
31.6228 µM | -1.31
100 µM | 27.5

NC1CCCCC1 [Cyclohexylamine]
Settings | LDH release cytotoxicity [%]
0.03162 µM | -1.45
0.1 µM | -1.58
0.3162278 µM | -1.84
1 µM | -2.2
3.16228 µM | -2.32
10 µM | -1.74
31.6228 µM | -0.752
100 µM | 0.0324

Nc1ccc(S(=O)(=O)c2ccc(N)cc2)cc1 [Dapsone]
Settings | LDH release cytotoxicity [%]
0.03162 µM | -1.24
0.1 µM | -0.379
0.3162278 µM | -1.16
1 µM | -0.536
3.16228 µM | 0.1
10 µM | -0.392
31.6228 µM | 0.105
100 µM | 1.63

N=C1C=NN(c2ccccc2)C(=O)C1Cl (stereo not given) [Chloridazon]
Settings | LDH release cytotoxicity [%]
0.03162 µM | -1.49
0.1 µM | -1.35
0.3162278 µM | -0.939
1 µM | -1.3
3.16228 µM | -0.697
10 µM | -0.282
31.6228 µM | -0.579
100 µM | 2.76

CC1=NC(=O)N(C(C)(C)C)C(=O)C1Cl (stereo not given) [Terbacil]
Settings | LDH release cytotoxicity [%]
0.031623 µM | -1.65
0.1 µM | -3.63
0.316228 µM | -2.5
1 µM | -3.38
3.16228 µM | -2.68
10 µM | -2.77
31.6228 µM | -1.74
100 µM | 2.1
